# Source: patent EP3693362B1, “PARASITIC PLANT GERMINATION REGULATOR” (National University Corporation Tokai National Higher …, priority 2017, dated 2019)
# How the values were obtained:
# Assay in all cases: Affinity for strigolactone receptor, YLG probe competition (fluorescence)
# Format in all cases: binding
# Settings in all cases: competition with YLG, test range 0.01 to 10 µM, pH 7.0, read-out: IC50 values of test compounds
# [1] = biological target: T1, HTL3 (Striga hermonthica, UniProt A0A0M3PN85)
# T1 sequence (A0A0M3PN85 1-276): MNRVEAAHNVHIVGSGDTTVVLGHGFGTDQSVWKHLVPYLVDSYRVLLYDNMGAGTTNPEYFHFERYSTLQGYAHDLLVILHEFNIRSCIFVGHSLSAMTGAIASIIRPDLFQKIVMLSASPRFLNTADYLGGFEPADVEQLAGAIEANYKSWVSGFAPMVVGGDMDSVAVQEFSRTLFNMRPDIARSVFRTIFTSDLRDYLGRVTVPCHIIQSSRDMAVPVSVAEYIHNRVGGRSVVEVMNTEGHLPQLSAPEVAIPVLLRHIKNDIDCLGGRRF
# Description: (§1) PTL 1 reports that the affinity of a test compound for the strigolactone receptor can be evaluated by reacting strigolactone with a probe for evaluation of affinity for a strigolactone receptor (e.g., YLG) in the presence of the test compound, and measuring the fluorescence emitted from the decomposition product of YLG. Therefore, the compounds synthesized in Example 1 were used as the test compounds, and the affinity for the strigolactone receptor was evaluated by a similar method to the above. The details are as follows.
# (§2) An Arabidopsis thaliana strigolactone receptor (AtD14) was produced in accordance with a usual method. More specifically, cDNA of the receptor was obtained by RT-PCR, and expression and purification were carried out in E. coli. Additionally, Striga strigolactone receptors were produced by the method disclosed in PTL 1 (ShHTL1: amino acid SEQ ID NO: 1, ShHTL2: amino acid SEQ ID NO: 2, ShHTL3: amino acid SEQ ID NO: 3, ShHTL4: amino acid SEQ ID NO: 4, ShHTL5: amino acid SEQ ID NO: 5, ShHTLS: amino acid SEQ ID NO: 6, ShHTL7: amino acid SEQ ID NO: 7, ShHTLS: amino acid SEQ ID NO: 8, ShHTL9: amino acid SEQ ID NO: 9, ShHTL10: amino acid SEQ ID NO: 10, and ShHTL11: amino acid SEQ ID NO: 11.)
# (§3) One hundred microliters of a reaction solution containing each of the obtained strigolactone receptors ([…]), YLG (final concentration: […]), and each of the test compounds (final concentration: 0.01 to 10 µM) or the control compound (5-deoxystrigol, final concentration: 0.01 to 10 µM) as a competitive compound (100 mM HEPES, 150 mM NaCl, pH: 7.0, 0.1% DMSO) was prepared and reacted in a 96 black-well plate (Greiner). Sixty after the initiation of the reaction, fluorescence was detected at an excitation wavelength of 480 nm and a detection wavelength of 520 nm using a fluorescence detector (SpectraMax i3, manufactured by Molecular Devices), and the fluorescence intensity was measured. Based on the measurement results of fluorescence intensity, a Lineweaver-Burk plot was created to calculate the Km values, and the IC50 values of each of the test compounds and the control compound, which are competitive compounds.
# (§4) In Table 7, HTL1 to HTL11 refer to strigolactone receptors (SEQ ID NOs: 1 to 11), and AtD14 refer to the Arabidopsis thaliana strigolactone receptor.
# [2] = biological target: T2, HTL9 (Striga hermonthica, UniProt A0A0M4AGW0)
# T2 sequence (A0A0M4AGW0 1-271): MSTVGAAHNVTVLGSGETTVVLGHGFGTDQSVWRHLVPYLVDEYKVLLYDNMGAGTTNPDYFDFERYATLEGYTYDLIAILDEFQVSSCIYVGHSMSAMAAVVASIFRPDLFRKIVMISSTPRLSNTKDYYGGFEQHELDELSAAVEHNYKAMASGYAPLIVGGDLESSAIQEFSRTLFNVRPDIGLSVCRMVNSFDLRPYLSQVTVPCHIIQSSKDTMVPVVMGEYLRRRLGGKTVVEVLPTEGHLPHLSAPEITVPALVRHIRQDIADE
# Description: as §1, §2, §3, §4
# [3] = biological target: T3, HTL10 (Striga hermonthica, UniProt A0A0M4AH20)
# T3 sequence (A0A0M4AH20 1-268): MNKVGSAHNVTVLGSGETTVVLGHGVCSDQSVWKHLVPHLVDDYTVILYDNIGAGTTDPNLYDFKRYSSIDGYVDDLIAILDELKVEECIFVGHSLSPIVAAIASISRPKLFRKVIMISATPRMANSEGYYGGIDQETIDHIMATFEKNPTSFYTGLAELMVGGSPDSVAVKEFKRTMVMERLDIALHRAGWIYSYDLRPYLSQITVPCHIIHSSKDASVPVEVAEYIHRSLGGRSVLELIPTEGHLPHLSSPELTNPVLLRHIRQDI
# Description: as §1, §2, §3, §4
# [4] = biological target: T4, HTL5 (Striga hermonthica, UniProt A0A0M5I297)
# T4 sequence (A0A0M5I297 1-271): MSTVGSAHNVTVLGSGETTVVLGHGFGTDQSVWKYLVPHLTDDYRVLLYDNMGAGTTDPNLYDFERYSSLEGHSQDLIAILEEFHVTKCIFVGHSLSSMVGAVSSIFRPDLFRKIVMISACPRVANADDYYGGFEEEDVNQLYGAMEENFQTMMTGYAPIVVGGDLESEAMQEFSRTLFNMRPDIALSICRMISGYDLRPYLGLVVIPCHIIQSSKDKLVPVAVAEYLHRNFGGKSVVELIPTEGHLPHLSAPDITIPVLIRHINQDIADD
# Description: as §1, §2, §3, §4
# [5] = biological target: T5, HTL2 (Striga hermonthica, UniProt A0A0M4AMP1)
# T5 sequence (A0A0M4AMP1 1-285): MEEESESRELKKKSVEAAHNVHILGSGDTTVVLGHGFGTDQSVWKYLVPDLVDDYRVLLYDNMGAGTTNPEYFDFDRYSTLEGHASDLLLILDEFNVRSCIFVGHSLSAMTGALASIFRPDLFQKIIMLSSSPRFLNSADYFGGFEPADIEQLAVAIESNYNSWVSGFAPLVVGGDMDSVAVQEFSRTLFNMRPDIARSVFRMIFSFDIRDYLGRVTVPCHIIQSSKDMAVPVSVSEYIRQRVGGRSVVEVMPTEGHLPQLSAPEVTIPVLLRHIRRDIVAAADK
# Description: as §1, §2, §3, §4
# [6] = biological target: T6, HTL11 (Striga hermonthica, UniProt A0A0M4AS18)
# T6 sequence (A0A0M4AS18 1-268): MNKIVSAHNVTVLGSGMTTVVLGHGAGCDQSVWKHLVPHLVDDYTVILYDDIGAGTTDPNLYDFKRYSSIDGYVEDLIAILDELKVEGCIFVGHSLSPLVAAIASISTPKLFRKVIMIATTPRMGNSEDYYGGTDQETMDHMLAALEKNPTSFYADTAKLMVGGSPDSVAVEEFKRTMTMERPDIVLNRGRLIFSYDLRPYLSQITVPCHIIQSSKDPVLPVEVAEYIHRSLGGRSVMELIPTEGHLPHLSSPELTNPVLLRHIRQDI
# Description: as §1, §2, §3, §4
SMILES,IC50 [1],IC50 [2],IC50 [3],IC50 [4],IC50 [5],IC50 [6]
"CC1=CC(OC=C2C(=O)OC3C4=C(CCCC4(C)C)CC23)OC1=O (stereo not drawn) [5-Ddeoxystriqol, 5-deoxystrigol, reference compound]",9.3 µM,1.2 µM,0.62 µM,3.6 µM,8.9 µM,1.6 µM
"CC1=CC(OC(=O)NCc2ccccc2)OC1=O (stereo not drawn) [Comparison Compound 1, reference compound]",> 10 µM,> 10 µM,> 10 µM,> 10 µM,> 10 µM,0.66 µM
CCCCOc1ccc(S(=O)(=O)N2CCN(C(=O)OC3C=C(C)C(=O)O3)CC2)cc1 (stereo not drawn) [Compound 1],> 10 µM,> 10 µM,> 10 µM,> 10 µM,> 10 µM,1.8 µM
CCCCOc1ccc(S(=O)(=O)N2CCN(C(=O)OC3C=CC(=O)O3)CC2)cc1 (stereo not drawn) [Compound 13],2 µM,> 10 µM,> 10 µM,> 10 µM,> 10 µM,> 10 µM
